Measurements published in patent US12091425B2 (AMGEN INC., priority 2016, dated 2024).

Assays:
[1] = target: T1, Mcl-1/Bim interaction, recombinant human Mcl-1 (171-327) (Homo sapiens, UniProt Q07820); experiment: Cell free Mcl-1: Bim Affinity Assay (Mcl-1 HTRF); assay type: binding
T1 construct: made in house
In short: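 TR-FRET competition assay with biotinylated human Bim peptide (residues 51-76); reaction plates incubated overnight before reading. IC50 values came from duplicate data fitted to a four-parameter sigmoidal competition curve.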

[2] = test system: OPM-2 human multiple myeloma cell line; experiment: Cell Viability Assay (OPM-2 10 FBS); assay type: cell-based; conditions: OPM-2 cells, CellTiter-Glo
In short: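 OPM-2 myeloma cells, 3000/well in medium with 10% FBS, exposed to serially diluted compounds for 16 h at 37° C./5% CO2. Viability read by CellTiter-Glo luminescence; IC50 from 4-parameter logistic fit.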

[3] = TR-FRET, 0.1 nM Mcl-1 (171-327), 0.05 nM biotin-Bim (51-76)
[4] = Homo sapiens, OPM-2, 16 h, 16 h
[5] = cell free Mcl-1:Bim TR-FRET, recombinant human Mcl-1 (171-327)
[6] = Homo sapiens, OPM-2, 16 h, 16 h incubation

T1 sequence (Q07820 171-327): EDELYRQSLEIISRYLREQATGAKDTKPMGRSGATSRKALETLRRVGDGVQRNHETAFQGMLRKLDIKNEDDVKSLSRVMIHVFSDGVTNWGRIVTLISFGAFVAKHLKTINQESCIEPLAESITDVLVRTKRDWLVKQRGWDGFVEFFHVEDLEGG

SMILES | IC50 [1, 3] [nM] | IC50 [2, 4] [nM] | IC50 [1, 5] [nM] | IC50 ([2]; 16 h) [nM] | also measured
C[C@H]1C/C=C/[C@H](O)[C@@H]2CC[C@H]2CN2C[C@@]3(CCCc4cc(Cl)ccc43)COc3ccc(cc32)C(=O)NS(=O)(=O)N1C [Example 83, (1S,3′R,6′R,7′S,8′E,11′S)-6-chloro-7′-hydroxy-11′,12′-dimethyl-3,4-dihydro-2H,15′H-spiro[naphthalene-1,22′-[20]oxa[13]thia[1,12,14]triazatetracyclo[14.7.2.0^3,6.0^19,24]pentacosa[8,16,18,24]tetraen]-15′-one 13′,13′-dioxide] | 0.419 | 487 | – | – | –
CO[C@H]1C/C=C/[C@H](O)[C@@H]2CC[C@H]2CN2C[C@@]3(CCCc4cc(Cl)ccc43)COc3ccc(cc32)C(=O)NS(=O)(=O)[C@@H]1CC1CC1 (single isomer, unassigned) [Example 575] | – | – | 3.21 | 2070 | –
C[C@H]1CCCS(=O)(=O)NC(=O)c2ccc3c(c2)N(C[C@@H]2CC[C@H]2[C@@H](O)C1)C[C@@]1(CCCc2cc(Cl)ccc21)CO3 (single isomer, unassigned) [Example 241] | 4.85 | – | – | 7390 | –
C[C@@H]1[C@@H](C)/C=C/C[C@H](OCCN2CCOCC2)[C@@H]2CC[C@H]2CN2C[C@@]3(CCCc4cc(Cl)ccc43)COc3ccc(cc32)C(=O)NS1(=O)=O [Example 16, (1S,3′R,6′R,7′S,9′E,11′S,12′R)-6-chloro-11′,12′-dimethyl-7′-(2-(4-morpholinyl)ethoxy)-3,4-dihydro-2H,15′H-spiro[naphthalene-1,22′-[20]oxa[13]thia[1,14]diazatetracyclo[14.7.2.0^3,6.0^19,24]pentacosa [9,16,18,24]tetraen]-15′-one 13′,13′-dioxide] | 2.21 | – | – | – | IC50 ([2]; Homo sapiens, 16 h): 3580 nM
CN(C)C(=O)CC[C@@H]1CC/C=C/[C@H](O)[C@@H]2CC[C@H]2CN2C[C@@]3(CCCc4cc(Cl)ccc43)COc3ccc(cc32)C(=O)NS1(=O)=O (single isomer, unassigned) [Example 618] | – | – | 0.172 | 607 | –
O=C1NS(=O)(=O)C[C@@H](C2CC2)C/C=C/[C@H](O)[C@@H]2CC[C@H]2CN2C[C@@]3(CCCc4cc(Cl)ccc43)COc3ccc1cc32 (single isomer, unassigned) [Example 683] | – | – | 2.31 | 2090 | –
O=C1NS(=O)(=O)[C@H]2CCCC(C2)[C@H](O)[C@@H]2CC[C@H]2CN2C[C@@]3(CCCc4cc(Cl)ccc43)COc3ccc1cc32 (single isomer, unassigned) [Example 364] | 3.12 | – | – | 30900 | –
COC(=O)CN(CC(=O)OC)[C@H]1/C=C/CC[C@@H](C)S(=O)(=O)NC(=O)c2ccc3c(c2)N(C[C@@H]2CC[C@H]21)C[C@@]1(CCCc2cc(Cl)ccc21)CO3 [Example 600, dimethyl 2,2′-(((1S,3′R,6′R,7′S,8′E,12′R)-6-chloro-12′-methyl-13′,13′-dioxido-15′-oxo-3,4-dihydro-2H-spiro[naphthalene-1,22′-[20]oxa[13]thia[1,14]diazatetracyclo[14.7.2.0^3,6.0^19,24]pentacosa [8,16,18,24]tetraen]-7′-yl)imino)diacetate-trifluoroacetic Acid] | – | 104 | 0.647 | – | –
O=C1NS(=O)(=O)[C@H](Cc2nccs2)CC/C=C\[C@H](O)[C@@H]2CC[C@H]2CN2C[C@@]3(CCCc4cc(Cl)ccc43)COc3ccc1cc32 (single isomer, unassigned) [Example 374] | 2.86 | – | – | 2940 | –
CC[C@@H]1CC/C=C/[C@H](O)[C@@H]2CC[C@H]2CN2C[C@@]3(CCCc4cc(Cl)ccc43)COc3cc(Cl)c(cc32)C(=O)NS1(=O)=O [Example 657, (1S,3′R,6′R,7′S,8′E,12′R)-6,17′-dichloro-12′-ethyl-7′-hydroxy-3,4-dihydro-2H,15′H-spiro[naphthalene-1,22′-[20]oxa[13]thia[1,14]diazatetracyclo[14.7.2.0^3,6.0^19,24]pentacosa[8,16,18,24]tetraen]-15′-one 13′,13′-dioxide] | – | 24700 | 11.2 | – | –
COCCO[C@H]1/C=C/C[C@@H]2COC[C@H]2S(=O)(=O)NC(=O)c2ccc3c(c2)N(C[C@@H]2CC[C@H]21)C[C@@]1(CCCc2cc(Cl)ccc21)CO3 (single isomer, unassigned) [Example 1033] | 0.366 | – | – | – | IC50 ([2]; 16 h incubation): 205 nM
O=C1NS(=O)(=O)[C@H](Cc2ccccc2)C/C=C/[C@H](O)[C@@H]2CC[C@H]2CN2C[C@@]3(CCCc4cc(Cl)ccc43)COc3ccc1cc32 (single isomer, unassigned) [Example 646] | – | – | 45.3 | 23700 | –
C[C@H]1C/C=C/[C@H](O)[C@@H]2CC[C@H]2CN2C[C@@]3(CCCc4cc(Cl)ccc43)COc3ccc(cc32)C(=O)NS(=O)(=O)N1CC1CC1 [Example 28, (1S,3′R,6′R,7′S,8′E,11′S)-6-chloro-12′-(cyclopropylmethyl)-7′-hydroxy-11′-methyl-3,4-dihydro-2H,15′H-spiro[naphthalene-1,22′-[20]oxa[13]thia[1,12,14]triazatetracyclo[14.7.2.0^3,6.0^19,24]pentacosa[8,16,18,24]tetraen]-15′-one 13,13′-dioxide] | 0.8 | 1700 | – | – | –
COC(=O)CN[C@H]1/C=C/CC[C@@H](C)S(=O)(=O)NC(=O)c2ccc3c(c2)N(C[C@@H]2CC[C@H]21)C[C@@]1(CCCc2cc(Cl)ccc21)CO3 [Example 599, methyl N-((1S,3′R,6′R,7′S,8′E,12′R)-6-chloro-12′-methyl-13′,13′-dioxido-15′-oxo-3,4-dihydro-2H-spiro[naphthalene-1,22′-[20]oxa[13]thia[1,14]diazatetracyclo[14.7.2.0^3,6.0^19,24]pentacosa [8,16,18,24]tetraen]-7′-yl)glycinate-trifluoroacetic Acid] | – | 652 | 1.51 | – | –
C[C@@H]1[C@@H](C)C=C/C=C/[C@@H]2CC[C@H]2CN2C[C@@]3(CCCc4cc(Cl)ccc43)COc3ccc(cc32)C(=O)NS1(=O)=O (stereo in doubt) [Example 372, (1S,3′R,6′S,7′E,9′E,11′S,12′R)-6-chloro-11′,12′-dimethyl-3,4-dihydro-2H,15′H-spiro[naphthalene-1,22′-[20]oxa[13]thia[1,14]diazatetracyclo[14.7.2.0^3,6.0^19,24]pentacosa [7,9,16,18,24]pentaen]-15′-one 13′,13′-dioxide] | 9.49 | 14600 | – | – | –
CCOC(=O)CO[C@H]1/C=C/CC[C@@H](CC)S(=O)(=O)NC(=O)c2ccc3c(c2)N(C[C@@H]2CC[C@H]21)C[C@@]1(CCCc2cc(Cl)ccc21)CO3 [Example 1003, ethyl (((1S,3′R,6′R,7′S,8′E,12′R)-6-chloro-12′-ethyl-13′,13′-dioxido-15′-oxo-3,4-dihydro-2H-spiro[naphthalene-1,22′-[20]oxa[13]thia[1,14]diazatetracyclo[14.7.2.0^3,6.0^19,24]pentacosa [8,16,18,24]tetraen]-7′-yl)oxy)acetate] | 0.844 | – | – | – | IC50 [2, 6]: 273 nM
C[C@H]1/C=C/[C@H](O)[C@@H]2CC[C@H]2CN2C[C@@]3(CCCc4cc(Cl)ccc43)COc3ccc(cc32)C(=O)NS(=O)(=O)[C@@H]2COC[C@H]21 (single isomer, unassigned) [Example 1058] | 0.249 | – | – | – | IC50 ([2]; 16 h incubation): 456 nM
C[C@H]1C/C=C/[C@H](OCCN2CCOCC2)[C@@H]2CC[C@H]2CN2C[C@@]3(CCCc4cc(Cl)ccc43)COc3ccc(cc32)C(=O)NS(=O)(=O)N1 [Example 67, (1S,3′R,6′R,7′S,8′E,11′S)-6-chloro-11′-methyl-7′-(2-(4-morpholinyl)ethoxy)-3,4-dihydro-2H,15′H-spiro[naphthalene-1,22′-[20]oxa[13]thia[1,12,14]triazatetracyclo[14.7.2.0^3,6.0^19,24]pentacosa[8,16,18,24]tetraen]-15′-one 13′,13′-dioxide] | 1.51 | 450 | – | – | –
O=C1NS(=O)(=O)C2COCC2CC=CC(O)C2CCC2CN2CC3(CCCc4cc(Cl)ccc43)COc3ccc1cc32 (single isomer, unassigned) [Example 1036] | 1.36 | – | – | – | IC50 [2, 6]: 11300 nM
C[C@@H]1[C@@H](C)C/C=C/[C@H](OCCC2CCN(C(=O)OC(C)(C)C)CC2)[C@@H]2CC[C@H]2CN2C[C@@]3(CCCc4cc(Cl)ccc43)COc3ccc(cc32)C(=O)NS1(=O)=O [Example 737, tert-butyl 4-(2-(((1S,3′R,6′R,7′S,8′E,11′S,12′R)-6-chloro-11′,12′-dimethyl-13′,13′-dioxido-15′-oxo-3,4-dihydro-2H-spiro[naphthalene-1,22′-[20]oxa[13]thia[1,14]diazatetracyclo[14.7.2.0˜3,6˜.0˜19,24˜]pentacosa[8,16,18,24]tetraen]-7′-yl)oxy)ethyl)-1-piperidinecarboxylate] | – | 3390 | 15.1 | – | –
C[C@H]1C/C=C/C[C@H](O)[C@@H]2CC[C@H]2CN2C[C@@]3(CCCc4cc(Cl)ccc43)COc3ccc(cc32)C(=O)NS(=O)(=O)[C@H]1C (single isomer, unassigned) [Example 557] | – | – | 1.08 | 1040 | –
COC[C@@H](O)C[C@@H]1[C@@H](C)C/C=C/[C@H](O)[C@@H]2CC[C@H]2CN2C[C@@]3(CCCc4cc(Cl)ccc43)COc3ccc(cc32)C(=O)NS1(=O)=O (single isomer, unassigned) [Example 673] | – | – | 0.183 | 445 | –
